Experimental data taken from US20220287938A1, “COSMETIC COMPOSITION COMPRISING EUTECTIC MIXTURE” (LG HOUSEHOLD & HEALTH CARE LTD., priority 2019, published 2022).
One block for each compound: values may come before it.

Key:
human fibroblasts = experiment: Total amount of collagen produced (PICP EIA kit); format: cell-based; settings: for Average absorbance: 450 nm, number of repeats=3; for Collagen increase rate (%): relative to control (no additive)
Description: The total amount of collagen was quantified using a PICP kit (Procollagen Type I C-Peptide Enzyme ImmunoAssay KIT).
Specifically, after each sample was added to the culture medium of human fibroblasts and cultured for 1 day, the culture medium was taken, and a degree of increase in the total amount of collagen at each concentration was measured at 450 nm using a spectrophotometer with the PICP EIA kit.

HaCaT cells = experiment: Scratch wound healing (skin regeneration promotion); format: cell-based, human
Description: HaCaT cells, which are a human-derived keratinocyte cell line, were cultured under conditions of 37° C. and 5% CO2 using a DMEM medium (ADDEXBIO TECHNOLOGIES, San Diego, Calif., USA) supplemented with 10% fetal bovine serum (Gibco, Waltham, Mass., USA), […] and […]. After the cultured cells were seeded into a 24-well plate so as to have 2.0×10^5 cells per well, and then cultured for 24 hours, the cells were washed once with PBS, and scratches having a perpendicular line shape were created on the center of the plate by scraping the cells with a 200 μl pipet tip. The cells were washed twice with PBS to remove the dropped cell debris, and the medium was replaced with a […] DMEM containing each test material. In order to always capture the same part when the cells were photographed, the center of the well was marked with a fine marker and the cell photograph of the marked part was taken at the same time at the start of the experiment (0 hours). The cell photographs after 2, 4 and 24 hours were also taken in the same way. After a scratch area created on monolayer cells was measured from the photographs after 0 hours and 24 hours using an image analysis program (Image J), the area filled with the scratch area was shown as a wound healing percentage (%) according to the following General Formula 1.

back skin of a pig = experiment: Keratin exfoliation effect on pig back skin (exfoliated keratin counted with cell counter)
Description: In order to confirm the keratin exfoliation effect of the aqueous eutectic mixture solution by the serine concentration of Example 2, the back skin of a pig was treated with the aqueous solution. Specifically, a 6-mm diameter sample with a thickness of 1 mm was taken from the back skin of the pig using a biopsy tool. After the sample was placed on a 96-well plate and washed once with phosphate buffered saline (PBS), 100 μl of the aqueous eutectic mixture solution of Example 2 was added thereto. In this case, to compare the keratin exfoliation effects, 100 μl of Comparative Example 4, a solution containing serine and malic acid, was added to the back skin of a pig in the same manner as described above. After the pig's back skin sample treated with each aqueous solution was stored under conditions of a temperature of 37° C. and humidity of 50% for 16 hours, the keratin exfoliation effect was confirmed by measuring the number of exfoliated keratin with a cell counter. In this case, a sample to which water was added was used as a negative control, a sample to which 10% gluconolactone (polyhydroxy acid, PHA) with a pH of 4, which is a known keratin exfoliating substance, was added was used as a first positive control, and a sample to which 10% gluconolactone with a pH of 6 was added was used as a second positive control. In the case of the second positive control, the keratin exfoliation effect was evaluated based on the condition that the efficacy was 15 to 20% compared to the first positive control. Here, the first positive control is applied as a reference for comparing the values between the actual experimental examples, and a relative keratin exfoliation value (%) was calculated and described as [(result value of sample)/(value of first positive control group)×100]. […]
Furthermore, it was confirmed whether the eutectic mixture was dissociated by observing the properties of a cosmetic (essence) including the eutectic mixture of Example 12, which was allowed to stand under separation conditions of the eutectic composition (Table 27) and confirming changes in melting point through measurement by differential scanning calorimetry (DSC) (Table 28) and the keratin exfoliation effect (Table 29), of the cosmetic. […] The melting point is expressed as a heat flow with respect to the sample in the DSC, and its accuracy is known to be 0.01° C. The melting point was measured in a pure nitrogen atmosphere, nitrogen was fed into a measuring chamber at a rate of 20 cc/min in order to maintain the nitrogen atmosphere, and the temperature of the chamber was set so as to increase by 10° C. per minute. The mass of the measured sample was confirmed by subtracting the weight of a pan for accommodating the sample in the DSC from the weight including the entire sample. […]

[1] = Skin permeability on pig skin (serine quantified by liquid chromatography); format: in vitro ADME; settings: pH 6.0 (mixtures adjusted to weakly acidic using citric acid); serine 5 parts by weight
Description: 10 μg of each of the aqueous solutions of Comparative Examples 1 and 2 and Example 1 were prepared and applied to pig skin having a uniform area. A tissue soaked with phosphate buffered saline (PBS) was placed on a 6-well plate and stored with the pig skin placed on the tissue under conditions of a temperature of 37° C. and a humidity of 50% for 12 hours. Then, the sample that could not penetrate the skin was removed using a cotton swab and a keratin tape, and the weight of the pig skin was measured. After the pig skin was crushed using a homogenizer, the amino acid and the eutectic mixture in the sample were sufficiently dissolved by adding 1 ml of water thereto, and then the resulting solution was centrifuged at 12,000 rpm for 10 minutes. After centrifugation, 0.5 ml of the supernatant was collected, and the serine concentration of the sample, which would be the amount permeated through the skin, was quantified using liquid chromatography with standard samples, and then transmittance was obtained by dividing the quantified concentration by the weight of the pig skin and comparing this to the initially introduced serine mass, as serine amount per gram of the tissue. The results of the skin permeability are illustrated in FIG. 2.
The skin permeability of the eutectic mixture prepared in Experimental Example 12 was confirmed. […]

Compound: N=C(N)NCCC[C@H](N)C(=O)O [Arg, arginine]
Average absorbance (human fibroblasts; 10 ppm, cultured for 1 day): 2.429
Collagen increase rate (%) (human fibroblasts; 10 ppm): 19.3%
Wound healing percentage (%) after 24 hours (HaCaT cells; 10 ppm (mixtures based on the concentration of arginine)): 73.5%

Compound: N[C@@H](CCC(=O)O)C(=O)O [Glu, glutamic acid]
Average absorbance (human fibroblasts; 10 ppm, cultured for 1 day): 2.240
Collagen increase rate (%) (human fibroblasts; 10 ppm): 10.0%
Wound healing percentage (%) after 24 hours (HaCaT cells; 1 ppm): 70.1%

Compound: O=C1O[C@H](CO)[C@@H](O)[C@H](O)[C@H]1O [PHA, gluconolactone]
Keratin exfoliation relative value (%) (back skin of a pig; pH 4.0, 10% gluconolactone, first positive control (reference = 100)): 100%
Keratin exfoliation relative value (%) (back skin of a pig; pH 4.0, first positive control (reference = 100)): 100%
Keratin exfoliation relative value (%) (back skin of a pig; pH 6.0 (mixtures adjusted to weakly acidic using citric acid)): 25.5%
Keratin exfoliation relative value (%) (back skin of a pig; pH 6.0, 10% gluconolactone, second positive control): 18.8%

Skin permeability relative value (Maximum value converted to 100%) [1]: 71.7%
Compound: N[C@@H](CO)C(=O)O [Serine, serine]

Compound: TGF-β
Average absorbance (human fibroblasts; 10 ng/ml (positive control)): 2.335
Collagen increase rate (%) (human fibroblasts; 10 ng/ml (positive control)): 14.7%
